In the assay the test system is S. aureus. Put plainly: Minimum inhibitory concentrations (MICs) for S. aureus of exemplary compounds (Table 2). The assay is classed as cell-based. As to conditions: Staphylococcus aureus, minimum inhibitory concentrations for S. aureus; read-out: MICs. Put shortly:
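MICs (μg/mL) against S. aureus come from microtiter-tray dilution susceptibility testing per NCCLS M7-A5, comparing growth with and without compound.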

In brackets after ≈: the same amount, converted by molar mass.

On to `CC(=O)NC[C@H]1CN(c2ccc(-c3ccc(S(=O)(=O)NCc4ccccn4)cc3)c(F)c2)C(=O)O1` [Compound 3006, N-(3-{2-Fluoro-4′-[(pyridin-2-ylmethyl)-sulfamoyl]-biphenyl-4-yl}-2-oxo-oxazolidin-5-(S)-ylmethyl)-acetamide], for which the MIC stood at 16 µg/mL (≈ 32.1 µM).

For the molecule `CC(=O)NC[C@H]1CN(c2ccc(-c3ccc(S(=O)(=O)NCCc4ccccn4)cc3)c(F)c2)C(=O)O1` [Compound 3007, N-{3-[2-Fluoro-4′-(2-pyridin-2-yl-ethylsulfamoyl)-biphenyl-4-yl]-2-oxo-oxazolidin-5-(S)-ylmethyl}-acetamide], the MIC stood at 1 µg/mL (≈ 1.95 µM).

On to `CC(=O)NC[C@H]1CN(c2ccc(-c3ccc(CNC(=O)/C=C/c4c(C)[nH]c(=O)[nH]c4=O)cc3)c(F)c2)C(=O)O1` [Compound 4001, N-{4′-[5-(S)-(Acetylamino-methyl)-2-oxo-oxazolidin-3-yl]-2′-fluoro-biphenyl-4-ylmethyl}-3-(6-methyl-2,4-dioxo-1,2,3,4-tetrahydro-pyrimidin-5-yl)-acrylamide], for which the MIC is 0.25 µg/mL (≈ 0.467 µM).

As to `CC(=O)NC[C@H]1CN(c2ccc(-c3ccc(CNC(=O)/C=C/c4cccnc4)cc3)c(F)c2)C(=O)O1` [Compound 4002, N-{4′-[5-(S)-(Acetylamino-methyl)-2-oxo-oxazolidin-3-yl]-2′-fluoro-biphenyl-4-ylmethyl}-3-pyridin-3-yl-acrylamide], the MIC came out at 4 µg/mL (≈ 8.19 µM).

`COc1nc(C)c(C=CC(=O)NCc2ccc(-c3ccc(N4C[C@H](CNC(C)=O)OC4=O)cc3F)cc2)c(OC)n1` [Compound 4003, N-{4′-[5-(S)-(Acetylamino-methyl)-2-oxo-oxazolidin-3-yl]-2′-fluoro-biphenyl-4-ylmethyl}-3-(2,4-dimethoxy-6-methyl-pyrimidin-5-yl)-acrylamide]: the MIC turned out to be 128 µg/mL (≈ 227 µM).

As for `COc1nc(C)c(/C=C/C(=O)NCc2ccc(-c3ccc(N4C[C@H](CNC(C)=O)OC4=O)cc3F)cc2)c(O)n1` [Compound 4004, N-{4′-[5-(S)-(Acetylamino-methyl)-2-oxo-oxazolidin-3-yl]-2′-fluoro-biphenyl-4-ylmethyl}-3-(4-hydroxy-2-methoxy-6-methyl-pyrimidin-5-yl)-acrylamide], the MIC was 2 µg/mL (≈ 3.64 µM).

In the case of `CC(=O)NC[C@H]1CN(c2ccc(-c3ccc(CNC(=O)/C=C/c4cn(C)c(=O)n(C)c4=O)cc3)c(F)c2)C(=O)O1` [Compound 4005, N-{4′-[5-(S)-(Acetylamino-methyl)-2-oxo-oxazolidin-3-yl]-2′-fluoro-biphenyl-4-ylmethyl}-3-(1,3-dimethyl-2,4-dioxo-1,2,3,4-tetrahydro-pyrimidin-5-yl)-acrylamide], the MIC is 2 µg/mL (≈ 3.64 µM).

Take `CC(=O)NC[C@H]1CN(c2ccc(-c3ccc(CNC(=O)/C=C/c4cncnc4)cc3)c(F)c2)C(=O)O1` [Compound 4006, N-{4′-[5-(S)-(Acetylamino-methyl)-2-oxo-oxazolidin-3-yl]-2′-fluoro-biphenyl-4-ylmethyl}-3-pyrimidin-5-yl-acrylamide]: the MIC is 8 µg/mL (≈ 16.3 µM).

In the case of `CC(=O)NC[C@H]1CN(c2ccc(-c3ccc(CNC(=O)/C=C/c4cncn(C)c4=O)cc3)c(F)c2)C(=O)O1` [Compound 4007, N-{4′-[5-(S)-(Acetylamino-methyl)-2-oxo-oxazolidin-3-yl]-2′-fluoro-biphenyl-4-ylmethyl}-3-(1-methyl-6-oxo-1,6-dihydro-pyrimidin-5-yl)-acrylamide], the MIC was determined as 1 µg/mL (≈ 1.92 µM).

As to `CC(=O)NC[C@H]1CN(c2ccc(-c3ccc(CNC(=O)c4ccnc5ccccc45)cc3)c(F)c2)C(=O)O1` [Compound 4008, Quinoline-4-carboxylic acid {4′-[5-(S)-(acetylamino-methyl)-2-oxo-oxazolidin-3-yl]-2′-fluoro-biphenyl-4-ylmethyl}-amide], the MIC came out at 1 µg/mL (≈ 1.95 µM).

Take `CC(=O)NC[C@H]1CN(c2ccc(-c3ccc(CNC(=O)c4cnc5ccccc5c4)cc3)c(F)c2)C(=O)O1` [Compound 4009, Quinoline-3-carboxylic acid {4′-[5-(S)-(acetylamino-methyl)-2-oxo-oxazolidin-3-yl]-2′-fluoro-biphenyl-4-ylmethyl}-amide]: the MIC came out at 32 µg/mL (≈ 62.4 µM).

With `CC(=O)NC[C@H]1CN(c2ccc(-c3ccc(CNC(=O)c4cccn4C)cc3)c(F)c2)C(=O)O1` [Compound 4010, 1-Methyl-1H-pyrrole-2-carboxylic acid {4′-[5-(S)-(acetylamino-methyl)-2-oxo-oxazolidin-3-yl]-2′-fluoro-biphenyl-4-ylmethyl}-amide], the MIC worked out at 1 µg/mL (≈ 2.15 µM).

On to `CC(=O)NC[C@H]1CN(c2ccc(-c3ccc(CNC(=O)c4ccc5cc[nH]c5c4)cc3)c(F)c2)C(=O)O1` [Compound 4011, 1H-Indole-6-carboxylic acid {4′-[5-(S)-(acetylamino-methyl)-2-oxo-oxazolidin-3-yl]-2′-fluoro-biphenyl-4-ylmethyl}-amide], for which the MIC was 1 µg/mL (≈ 2 µM).

Take `CC(=O)NC[C@H]1CN(c2ccc(-c3ccc(CNC(=O)c4cccc(S(C)(=O)=O)c4)cc3)c(F)c2)C(=O)O1` [Compound 4012, N-{4′-[5-(S)-(Acetylamino-methyl)-2-oxo-oxazolidin-3-yl]-2′-fluoro-biphenyl-4-ylmethyl}-3-methanesulfonyl-benzamide]: the MIC worked out at 4 µg/mL (≈ 7.41 µM).

Turning to `CC(=O)NC[C@H]1CN(c2ccc(-c3ccc(CNC(=O)c4ccc(F)cc4)cc3)c(F)c2)C(=O)O1` [Compound 4013, N-{4′-[5-(S)-(Acetylamino-methyl)-2-oxo-oxazolidin-3-yl]-2′-fluoro-biphenyl-4-ylmethyl}-4-fluoro-benzamide], the MIC came out at 8 µg/mL (≈ 16.7 µM).

For the molecule `CC(=O)NC[C@H]1CN(c2ccc(-c3ccc(CNC(=O)c4ccc5c(c4)OCO5)cc3)c(F)c2)C(=O)O1` [Compound 4014, Benzo[1,3]dioxole-5-carboxylic acid {4′-[5-(S)-(acetylamino-methyl)-2-oxo-oxazolidin-3-yl]-2′-fluoro-biphenyl-4-ylmethyl}-amide], the MIC is 4 µg/mL (≈ 7.91 µM).

With `COc1ccc2[nH]c(C(=O)NCc3ccc(-c4ccc(N5C[C@H](CNC(C)=O)OC5=O)cc4F)cc3)cc2c1` [Compound 4015, 5-Methoxy-1H-indole-2-carboxylic acid {4′-[5-(S)-(acetylamino-methyl)-2-oxo-oxazolidin-3-yl]-2′-fluoro-biphenyl-4-ylmethyl}-amide], the MIC stood at 4 µg/mL (≈ 7.54 µM).

In the case of `CC(=O)NC[C@H]1CN(c2ccc(-c3ccc(CNCc4ccnc5ccccc45)cc3)c(F)c2)C(=O)O1` [Compound 4016, N-[3-(2-Fluoro-4′-{[(quinolin-4-ylmethyl)-amino]-methyl}-biphenyl-4-yl)-2-oxo-oxazolidin-5-(S)-ylmethyl]-acetamide], the MIC amounted to 1 µg/mL (≈ 2.01 µM).

With `CC(=O)NC[C@H]1CN(c2ccc(-c3ccc(CNCc4ccc(-c5ccccn5)cc4)cc3)c(F)c2)C(=O)O1` [Compound 4017, N-(3-{2-Fluoro-4′-[(4-pyridin-2-yl-benzylamino)-methyl]-biphenyl-4-yl}-2-oxo-oxazolidin-5-(S)-ylmethyl)-acetamide], the MIC was 2 µg/mL (≈ 3.81 µM).

As for `CC(=O)NC[C@H]1CN(c2ccc(-c3ccc(CNCc4ccncc4)cc3)c(F)c2)C(=O)O1` [Compound 4018, N-[3-(2-Fluoro-4′-{[(pyridin-4-ylmethyl)-amino]-methyl}-biphenyl-4-yl)-2-oxo-oxazolidin-5-(S)-ylmethyl]-acetamide], the MIC amounted to 1 µg/mL (≈ 2.23 µM).

Take `CC(=O)NC[C@H]1CN(c2ccc(-c3ccc(CNCc4ccc5ccccc5n4)cc3)c(F)c2)C(=O)O1` [Compound 4019, N-[3-(2-Fluoro-4′-{[(quinolin-2-ylmethyl)-amino]-methyl}-biphenyl-4-yl)-2-oxo-oxazolidin-5-(S)-ylmethyl]-acetamide]: the MIC came to 0.5 µg/mL (≈ 1 µM).

`CC(=O)NC[C@H]1CN(c2ccc(-c3ccc(CNCc4cc5ccccc5o4)cc3)c(F)c2)C(=O)O1` [Compound 4020]: the MIC amounted to 2 µg/mL (≈ 4.1 µM).

Consider `CC(=O)NC[C@H]1CN(c2ccc(-c3ccc(CNCc4cnc5ccccc5c4)cc3)c(F)c2)C(=O)O1` [Compound 4021, N-[3-(2-Fluoro-4′-{[(quinolin-3-ylmethyl)-amino]-methyl}-biphenyl-4-yl)-2-oxo-oxazolidin-5-(S)-ylmethyl]-acetamide], for which the MIC came out at 0.25 µg/mL (≈ 0.501 µM).

Turning to `CC(=O)NC[C@H]1CN(c2ccc(-c3ccc(CNCc4cccc5ccccc45)cc3)c(F)c2)C(=O)O1` [Compound 4022, N-[3-(2-Fluoro-4′-{[(naphthalen-1-ylmethyl)-amino]-methyl}-biphenyl-4-yl)-2-oxo-oxazolidin-5-(S)-ylmethyl]-acetamide], the MIC amounted to 4 µg/mL (≈ 8.04 µM).

For the molecule `CC(=O)NC[C@H]1CN(c2ccc(-c3ccc(CNCc4ccoc4)cc3)c(F)c2)C(=O)O1` [Compound 4023, N-[3-(2-Fluoro-4′-{[(furan-3-ylmethyl)-amino]-methyl}-biphenyl-4-yl)-2-oxo-oxazolidin-5-(S)-ylmethyl]-acetamide], the MIC is 1 µg/mL (≈ 2.29 µM).

On to `CC(=O)NC[C@H]1CN(c2ccc(-c3ccc(CNCc4ccccn4)cc3)c(F)c2)C(=O)O1` [Compound 4024, N-[3-(2-Fluoro-4′-{[(pyridin-2-ylmethyl)-amino]-methyl}-biphenyl-4-yl)-2-oxo-oxazolidin-5-(S)-ylmethyl]-acetamide], for which the MIC came out at 1 µg/mL (≈ 2.23 µM).

Consider `CC(=O)NC[C@H]1CN(c2ccc(-c3ccc(CNCc4cccnc4)cc3)c(F)c2)C(=O)O1` [Compound 4025, N-[3-(2-Fluoro-4′-{[(pyridin-3-ylmethyl)-amino]-methyl}-biphenyl-4-yl)-2-oxo-oxazolidin-5-(S)-ylmethyl]-acetamide], for which the MIC was determined as 1 µg/mL (≈ 2.23 µM).

For the molecule `CC(=O)NC[C@H]1CN(c2ccc(-c3ccc(CNCc4ccco4)cc3)c(F)c2)C(=O)O1` [Compound 4026, N-[3-(2-Fluoro-4′-{[(furan-2-ylmethyl)-amino]-methyl}-biphenyl-4-yl)-2-oxo-oxazolidin-5-(S)-ylmethyl]-acetamide], the MIC was 1 µg/mL (≈ 2.29 µM).

In the case of `COc1cc(CNCc2ccncc2)ccc1-c1ccc(N2C[C@H](CNC(C)=O)OC2=O)cc1F` [Compound 4027, N-[3-(2-Fluoro-2′-methoxy-4′-{[(pyridin-4-ylmethyl)-amino]-methyl}-biphenyl-4-yl)-2-oxo-oxazolidin-5-(S)-ylmethyl]-acetamide], the MIC is 8 µg/mL (≈ 16.7 µM).

Values taken from US10471046B2, “Method for treating, preventing, or reducing the risk of skin infection” (Melinta Subsidiary Corp., priority 2014, dated 2019).
